The numbers were not newly measured in patent US6803187B1 (priority 1998, dated 2004), which cites them from elsewhere.

In one data set the test system is HIV protease. The following applies: HIV-1 protease numbering.

Each structure is given as a SMILES string.

As for `CC(C)(C)NC(=O)[C@@H]1CN(Cc2cccnc2)CCN1C[C@@H](O)C[C@@H](Cc1ccccc1)C(=O)N[C@H]1c2ccccc2C[C@H]1O` [MK-639, indinavir], the “share of indinavir resistant isolates cross-resistant to nelfinavir” value in the data set on HIV (human, in vivo) is “Approximately one third”.

For `CC(C)(C)NC(=O)[C@@H]1C[C@@H]2CCCC[C@@H]2CN1C[C@@H](O)[C@H](Cc1ccccc1)NC(=O)[C@H](CC(N)=O)NC(=O)c1ccc2ccccc2n1` [Ro 31-8959, saquinavir], the “patients in whom resistant variants emerge” value with HIV (after 1 year of monotherapy, mutations at positions 90 and/or 48) is listed as “approximately 45%”. On to `CC(C)CN(C[C@@H](O)[C@H](Cc1ccccc1)NC(=O)O[C@H]1CCOC1)S(=O)(=O)c1ccc(N)cc1` [VX-478], for which the “amino acid position/codon whose change confers resistance” value in the data set on HIV protease is 50.
